Drawing on patent publication US20230322771A1, “HETEROCYCLIC GLP-1 AGONISTS” (Gasherbrum Bio, Inc., priority 2020, published 2023), this text covers EC50 for 1 molecule.

Structures are written as SMILES.

This experiment addresses GLP-1 Receptor (Homo sapiens, UniProt P43220). Kind of experiment: GLP-1R agonist cAMP stimulation assay (HEK293/GLP1R/CRE-LUC cells, HTRF cAMP dynamic 2 kit). It counts as cell-based. The following applies: HEK293/CRE-Luc cell line (HDB) stably expressing GLP-1 Receptor; 30 min incubation at 37° C.; read-out: GLP1R cAMP Stimulation DR: EC50 (nM) [Species: Human, Assay Cell Line: HDB]. The method, then: Activation of GLP-1 receptor is known to stimulate cyclic AMP (cAMP) production in cells which indicates primary coupling to the Gαs subunit of the G protein heterotrimeric complex.
To optimize functional activity directed toward Gαs coupling, a HEK293/CRE-Luc cell line developed by HDB stably expressing the GLP-1 Receptor was used. 200× concentration of compound working solutions were prepared (Agilent Technologies Bravo) with ½ log serial dilution in 384-well Echo LDV plate (Labcyte, Cat #LP-0200). 50 nL/well 200× concentration of compound working solutions were moved to 384-well white low volume plate (Greiner, Cat #784075) using Labcyte ECHO550. 1×10^5 cells/mL HEK293/GLP1R/CRE-LUC(HD Biosciences) cell suspensions prepared with assay buffer[DPBS containing 0.5 mM IBMX(Sigma, Cat #15879) and 0.1% BSA(GENVIEW, Cat #FA016-100 g)], 10 uL cell suspensions were added to each well of previous generated assay plate which already contains 50 nl compound at 200× concentration using ThermoFisher Multidrop Combi(1000 cells/well). Seal the plate and incubate at 37° C. with 5% CO2 for 30 min.
After incubation the cAMP assay signal was generated using cAMP dynamic 2 Kit (Cisbio). 5 μL cAMP-d2 working solution was added to each well, followed with 5 μL Anti-cAMP antibody-cryptate working solution added to each well using ThermoFisher Multidrop Combi. Incubate at room temperature for 1 hour protected from light. Read the fluorescence at 665 and 615 nm with Reader PerkinElmer EnVision.
% Activity=100%×(mean RLU of test sample−mean RLU of vehicle control)/(mean RLU of MAX control−mean RLU of vehicle control))
In general terms: TR-FRET usually uses a lanthanide donor and a delayed reading to cut background.

Sequence of GLP-1 Receptor (P43220 24-463): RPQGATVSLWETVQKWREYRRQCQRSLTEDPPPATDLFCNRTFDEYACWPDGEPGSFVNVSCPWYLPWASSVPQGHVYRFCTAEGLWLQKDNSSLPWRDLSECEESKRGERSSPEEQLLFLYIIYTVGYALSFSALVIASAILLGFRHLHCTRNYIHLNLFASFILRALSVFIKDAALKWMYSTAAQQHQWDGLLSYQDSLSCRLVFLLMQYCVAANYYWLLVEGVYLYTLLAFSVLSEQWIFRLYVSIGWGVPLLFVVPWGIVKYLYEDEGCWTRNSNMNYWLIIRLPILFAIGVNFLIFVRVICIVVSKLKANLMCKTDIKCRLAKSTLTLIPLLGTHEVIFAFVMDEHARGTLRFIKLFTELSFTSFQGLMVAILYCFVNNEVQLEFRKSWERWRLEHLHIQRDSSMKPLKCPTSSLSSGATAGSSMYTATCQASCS

As to `CCS(=O)(=O)C(C)c1ccc(-n2ccn(-c3c4c(nn3-c3cc(C)c(F)c(C)c3)CCN(C(=O)c3cc5cc(C6CCOCC6)ccc5n3C3(c5noc(=O)[nH]5)CC3)[C@H]4C)c2=O)c(F)c1` (stereo partly drawn) [Compound 113a, 3-(1-(2-((4S)-3-(3-(4-(1-(ethylsulfonyl)ethyl)-2-fluorophenyl)-2-oxo-2,3-dihydro-1H-imidazol-1-yl)-2-(4-fluoro-3,5-dimethylphenyl)-4-methyl-4,5,6,7-tetrahydro-2H-pyrazolo[4,3-c]pyridine-5-carbonyl)-5-(tetrahydro-2H-pyran-4-yl)-1H-indol-1-yl)cyclopropyl)-1,2,4-oxadiazol-5(4H)-one], the EC50 was 0.55 nM.

What is called EC50 is the concentration giving half of the maximal effect.
